Where two headings read alike, the source gives them in different places.
How the values were obtained:
Experiment in all cases: Inhibition of primary tumor cell cultures (48 hours) vs NK1 receptor immunostaining (Example 1)
Assay type in all cases: cell-based
Settings in all cases: Homo sapiens, 1 micromolar, read-out: Percentage of inhibition of cell cultures
[1] = tested on: Pancreatic carcinoma
Method: (§1) Cell cultures. To obtain tumor cells from human primary tumors we used the method described in De Bari et al. (De Bari et al. 2001). Briefly, small pieces of the tumors were digested into a hyaluronidase solution (Sigma-Aldrich, USA) at a concentration of 1 mg/ml during 15 minutes at 37°C, and then they were treated with 6 mg/ml of collagenase type IV (Invitrogen) during 2 hours at 37°C. Consecutively, cells were washed, and resuspended in the DMEM culture medium with high concentration of glucose (Dulbecco's Modified Eagle's Medium, Invitrogen) supplemented with 1% of antibiotics-antimycotics (Invitrogen) and with 1% of sodium pyruvate (Invitrogen), and the cells were seeded in culture slides at a concentration of 10.000 cells per square centimeter. When cells reached confluence, the adherent cells were separated using sterile trypsin at 0,5% (Invitrogen) and they were used among passages 3 and 9. For the assays shown next, tumor cells were seeded on slides at a concentration of 25.000 cells per well. A total of 6 wells containing the tumor cells were used as survival control. […] All the cultures were kept during 48 hours and later on recollected for their analysis.
(§2) Immunohistochemistry techniques. The presence of NK1 receptors was also analyzed using immunohistochemistry techniques. Briefly, a sample of each of the cultures of the cell lines used in the present invention, was centrifuged (5 minutes at 1.500 rpm) and the pellet obtained was dehydrated using increasing concentrations of ethanol and, finally, xylol. Then, said dehydrated samples were embedded in paraffin, creating a block of cells. Such paraffin blocks were cut with a microtome at 5 microns thickness, and were placed on microscope slides adequate to perform immunohistochemistry techniques. Consecutively, they were de-paraffinized by immersing them in xylol, to be finally hydrated using a solution containing decreasing concentrations of ethanol, and finally submerged them into water. […] After this, the samples were left to cool down at room temperature for 10 minutes. The endogenous peroxidase activity was blocked with 3% peroxide of hydrogen for 30 minutes at room temperature. After washing the samples with 0.05 M of Tris buffer, they were incubated with 10% non-immune pork serum at for 30 minutes at room temperature. To analyze the expression of NK1 receptors, the cellular samples were incubated in the presence of anti-NK1 antibodies (S8305, Sigma-Aldrich) diluted 1:1000, overnight at 4°C. Afterwards, the samples were washed in Tris buffer 0.05 M at room temperature. The next step was the addition of Envision System-HRP (Dako) reagents for 30 minutes at room temperature. Then, the samples were washed again in Tris buffer 0.05 M and the immunoreactivity was visualized through light microscopy with a chromogenic solution containing 3,3'-Diaminobenzidine (DAB+; Dako, USA). To differentiate the cell nuclei, they were slightly stained with hematoxylin. As negative control, it was used samples not incubated with the primary antibody anti-NK1, which was replaced by non-immune serum. All the samples were evaluated.
(§3) To value the immunostaining in each of the cases six cuts were performed to be analyzed by the immunohistochemistry technique. In each of the six cuts, it was counted cells in 20 fields (magnification 400x) using an Olympus microscope (model CX31). In each field it was counted the total number of cells and the number of cells presenting immunostaining, calculating afterwards the percentage of cells which presented immunostaining.

[2] = tested on: Renal cell carcinoma
Method: as §1, §2, §3

[3] = tested on: Carcinoma of the uterine cervix
Method: as §1, §2, §3

[4] = tested on: Lung carcinoma (non small cell type)
Method: as §1, §2, §3

[5] = tested on: Lung carcinoma (small cell type)
Method: as §1, §2, §3

[6] = tested on: Thyroid carcinoma (folliculary type)
Method: as §1, §2, §3

[7] = tested on: Glioma
Method: as §1, §2, §3

[8] = tested on: Fibrosarcoma
Method: as §1, §2, §3

[9] = tested on: Malignant Fibrous Histiocytoma
Method: as §1, §2, §3

[10] = tested on: Ewing Sarcoma
Method: as §1, §2, §3

[11] = tested on: Neuroblastoma
[12] = NK1 receptor immunostaining Group 1 (less than 20% of the cells)
[13] = NK1 receptor immunostaining Group 2 (20-80% of the cells)
[14] = NK1 receptor immunostaining Group 3 (more than 80% of the cells)
[15] = NK1 receptor immunostaining Intensity grade 1
[16] = NK1 receptor immunostaining Intensity grade 2
[17] = NK1 receptor immunostaining Intensity grade 3

## Cc1cc(F)ccc1[C@H]1CNCCN1C(=O)N(C)[C@H](C)c1cc(C(F)(F)F)cc(C(F)(F)F)c1 [Vestipitant]
[1]; [12]
  inhibition at 1 µM: 11 ± 3%
[1]; [13]
  inhibition at 1 µM: 45 ± 2%
[1]; [14]
  inhibition at 1 µM: 91 ± 3%
[1]; [15]
  inhibition at 1 µM: 21 ± 4%
[1]; [16]
  inhibition at 1 µM: 47 ± 5%
[1]; [17]
  inhibition at 1 µM: 91 ± 5%
[2]; [12]
  inhibition at 1 µM: 10 ± 4%
[2]; [13]
  inhibition at 1 µM: 45 ± 3%
[2]; [14]
  inhibition at 1 µM: 93 ± 6%
[2]; [15]
  inhibition at 1 µM: 21 ± 3%
[2]; [16]
  inhibition at 1 µM: 46 ± 4%
[2]; [17]
  inhibition at 1 µM: 93 ± 4%
[3]; [12]
  inhibition at 1 µM: 17 ± 4%
[3]; [13]
  inhibition at 1 µM: 46 ± 3%
[3]; [14]
  inhibition at 1 µM: 94 ± 4%
[3]; [15]
  inhibition at 1 µM: 19 ± 3%
[3]; [16]
  inhibition at 1 µM: 48 ± 3%
[3]; [17]
  inhibition at 1 µM: 94 ± 3%
[4]; [12]
  inhibition at 1 µM: 15 ± 2%
[4]; [13]
  inhibition at 1 µM: 45 ± 2%
[4]; [14]
  inhibition at 1 µM: 93 ± 4%
[4]; [15]
  inhibition at 1 µM: 17 ± 2%
[4]; [16]
  inhibition at 1 µM: 49 ± 5%
[4]; [17]
  inhibition at 1 µM: 93 ± 5%
[5]; [12]
  inhibition at 1 µM: 16 ± 3%
[5]; [13]
  inhibition at 1 µM: 46 ± 3%
[5]; [14]
  inhibition at 1 µM: 93 ± 3%
[5]; [15]
  inhibition at 1 µM: 18 ± 3%
[5]; [16]
  inhibition at 1 µM: 45 ± 3%
[5]; [17]
  inhibition at 1 µM: 93 ± 3%
[6]; [12]
  inhibition at 1 µM: 16 ± 3%
[6]; [13]
  inhibition at 1 µM: 45 ± 3%
[6]; [14]
  inhibition at 1 µM: 95 ± 5%
[6]; [15]
  inhibition at 1 µM: 19 ± 4%
[6]; [16]
  inhibition at 1 µM: 46 ± 4%
[6]; [17]
  inhibition at 1 µM: 95 ± 3%
[7]; [12]
  inhibition at 1 µM: 15 ± 4%
[7]; [13]
  inhibition at 1 µM: 45 ± 4%
[7]; [14]
  inhibition at 1 µM: 92 ± 4%
[7]; [15]
  inhibition at 1 µM: 19 ± 3%
[7]; [16]
  inhibition at 1 µM: 48 ± 5%
[7]; [17]
  inhibition at 1 µM: 92 ± 3%
[8]; [12]
  inhibition at 1 µM: 16 ± 3%
[8]; [13]
  inhibition at 1 µM: 45 ± 3%
[8]; [14]
  inhibition at 1 µM: 91 ± 3%
[8]; [15]
  inhibition at 1 µM: 18 ± 2%
[8]; [16]
  inhibition at 1 µM: 47 ± 3%
[8]; [17]
  inhibition at 1 µM: 91 ± 2%
[9]; [12]
  inhibition at 1 µM: 15 ± 4%
[9]; [13]
  inhibition at 1 µM: 46 ± 4%
[9]; [14]
  inhibition at 1 µM: 91 ± 5%
[9]; [15]
  inhibition at 1 µM: 17 ± 3%
[9]; [16]
  inhibition at 1 µM: 48 ± 4%
[9]; [17]
  inhibition at 1 µM: 91 ± 5%
[10]; [12]
  inhibition at 1 µM: 16 ± 3%
[10]; [13]
  inhibition at 1 µM: 46 ± 4%
[10]; [14]
  inhibition at 1 µM: 90 ± 6%
[10]; [15]
  inhibition at 1 µM: 16 ± 4%
[10]; [16]
  inhibition at 1 µM: 47 ± 3%
[10]; [17]
  inhibition at 1 µM: 90 ± 6%
[11]; [12]
  inhibition at 1 µM: 17 ± 2%
[11]; [13]
  inhibition at 1 µM: 46 ± 3%

Reference: EP2966448B1, “METHOD FOR THE PREDICTION OR PROGNOSIS OF THE RESPONSE OF A HUMAN SUBJECT SUFFERING FROM CANCER TO TREATMENT WITH AN ANTAGONIST OF THE NK1 RECEPTOR” (priority 2013, dated 2014)
